Data as given in US4593104A, “2-halo-N-(azole-1-yl-methyl)-substituted acetanilides” (BASF Aktiengesellschaft, priority 1976, dated 1986).

What was measured:
Bromus spp. = assay: preemergence treatment in the greenhouse, % damage; format: in vivo
Description: (§1) The vessels employed were plastic flowerpots having a volume of 300 cm^3; the substrate was a sandy loam containing about 1.5% humus. The seeds of the test plants (see Table 1) were sown shallow, and separated according to species. In the case of Cyperus esculentus, pregerminated tubers were planted. In the preemergence treatment, the active ingredients were then immediately applied to the surface of the soil. They were suspended or emulsified in water as the vehicle, and sprayed through atomizing nozzles. After the agents had been applied, the vessels were lightly sprinkler-irrigated to set germination and growth going, and to activate the chemical agents. The vessels were then covered with transparent plastic hoods until the plants had taken root. This cover ensured uniform germination of the test plants (to the extent that this was not impaired by the chemicals), and prevented readily volatile substances from evaporating.
(§2) For postemergence treatment, the plants were first grown to a height of from 3 to 10 cm, depending on their habit, before treated. Hoods were not placed on the pots. The experiments were set up in the greenhouse, hotter areas (25° to 40° C.) being preferred for heat-loving species, and 15° to 30° C. for plants from moderate climates. The experiments were carried out for from 4 to 6 weeks. During this period the plants were tended and their reaction to the various treatments was assessed. The following tables contain the substances investigated, the application rates in kg/ha of active ingredient, and the test plant species. Assessments were made on a 0 to 100 scale, 0 denoting no damage or normal emergence, and 100 denoting no emergence or complete destruction of at least the visible plant parts.

Solanum nigrum = assay: preemergence treatment in the greenhouse, % damage; format: in vivo
Description: as §1, §2

Matric. spp. = assay: preemergence treatment in the greenhouse, % damage; format: in vivo; conditions: 2.0 kg/ha
Description: as §1, §2

Brassica napus [1] = assay: preemergence treatment in the greenhouse, % damage; format: in vivo; conditions: 2.0 kg/ha
Description: as §1, §2

Zea mays = assay: preemergence treatment in the greenhouse, % damage; format: in vivo; conditions: 2.0 kg/ha
Description: as §1, §2

Alopec. myosur. [2] = assay: preemergence treatment in the greenhouse, % damage; format: in vivo; conditions: 2.0 kg/ha
Description: as §1, §2

Echin. c.g. = assay: preemergence treatment in the greenhouse, % damage; format: in vivo
Description: as §1, §2

Setaria spp. [3] = assay: preemergence treatment in the greenhouse, % damage; format: in vivo; conditions: 2.0 kg/ha
Description: as §1, §2

Lamium spp. = assay: preemergence application in the open, % damage; format: in vivo
Procedure: (§3) The experiments were carried out on small plots. The soil was a sandy loam having a pH of from 5 to 6 and containing from 1 to 1.5% humus. The treatment was preemergence, the active ingredients being applied immediately or at the latest 3 days after sowing. The crop plants were sown in rows. The weed flora was made up of the most widely varying species and was natural; the weed flora depended on the time of the year and in part on the crop (e.g., spring-germinating, summer-germinating). The substances were emulsified or suspended in water as the vehicle, and applied by means of a motor-driven plot spray mounted on a hitch. When no rain fell, the plots were watered to ensure germination and growth of the crop plants and weeds. All the experiments were run for several weeks. Over this period, assessments were made at certain intervals on the 0 to 100 scale.

Brassica napus [4] = assay: preemergence application in the open, % damage; format: in vivo
Procedure: as §3

Anth./Matric. = assay: preemergence application in the open, % damage; format: in vivo
Procedure: as §3

Stellaria media = assay: preemergence application in the open, % damage; format: in vivo
Procedure: as §3

Alopec. myosur. [5] = assay: preemergence application in the open, % damage; format: in vivo
Procedure: as §3

Poa annua = assay: preemergence treatment in the greenhouse, % damage; format: in vivo
Description: as §1, §2

Chrys. seget. = assay: preemergence treatment in the greenhouse, % damage; format: in vivo; conditions: 0.25 kg/ha
Description: as §1, §2

Euph. gen. = assay: preemergence treatment in the greenhouse, % damage; format: in vivo; conditions: 0.25 kg/ha
Description: as §1, §2

Amar. retro. = assay: preemergence treatment in the greenhouse, % damage; format: in vivo
Description: as §1, §2

Sorgh. halep. = assay: preemergence treatment in the greenhouse, % damage; format: in vivo
Description: as §1, §2

Cyper. escul. = assay: postemergence application in the greenhouse, % damage; format: in vivo, Cyperus esculentus
Description: as §1, §2

Avena fat. = assay: as above; format: in vivo
Description: as §1, §2

Stell. med. = assay: as above; format: in vivo
Description: as §1, §2

Setaria spp. [6] = assay: as above; format: in vivo
Description: as §1, §2

Cyp. diff. = assay: preemergence treatment in the greenhouse, % damage; format: in vivo
Description: as §1, §2

Glyc. max = assay: preemergence treatment in the greenhouse, % damage; format: in vivo, Glycine max
Description: as §1, §2

Gossyp. hirs. = assay: preemergence treatment in the greenhouse, % damage; format: in vivo, Gosspyium hirsutum
Description: as §1, §2

Lept. spp. = assay: preemergence treatment in the greenhouse, % damage; format: in vivo
Description: as §1, §2

Sida spin. = assay: preemergence treatment in the greenhouse, % damage; format: in vivo
Description: as §1, §2

Panic. virg. = assay: preemergence treatment in the greenhouse, % damage; format: in vivo
Description: as §1, §2

Ipom. spp. = assay: preemergence treatment in the greenhouse, % damage; format: in vivo
Description: as §1, §2

Cenchr. ech. = assay: preemergence treatment in the greenhouse, % damage; format: in vivo
Description: as §1, §2

Cc1ccccc1N(Cn1cccn1)C(=O)CCl
% damage (Bromus spp.; 2.0 kg/ha): 80% | % damage (Solanum nigrum; 2.0 kg/ha): 95% | % damage (Matric. spp.): 90% | % damage (Brassica napus [1]): 0% | % damage (Zea mays): 15% | % damage (Alopec. myosur. [2]): 90% | % damage (Echin. c.g.; 2.0 kg/ha): 95% | % damage (Setaria spp. [3]): 95%

Cc1ccccc1N(Cn1nccc1C)C(=O)CCl
% damage (Bromus spp.; 2.0 kg/ha): 90% | % damage (Solanum nigrum; 2.0 kg/ha): 100% | % damage (Matric. spp.): 90% | % damage (Brassica napus [1]): 10% | % damage (Zea mays): 0% | % damage (Alopec. myosur. [2]): 90% | % damage (Echin. c.g.; 2.0 kg/ha): 95% | % damage (Setaria spp. [3]): 100%

Cc1ccccc1N(Cn1nc(C)c(C)c1C)C(=O)CCl
% damage (Bromus spp.; 2.0 kg/ha): 80% | % damage (Solanum nigrum; 2.0 kg/ha): 100% | % damage (Matric. spp.): 95% | % damage (Brassica napus [1]): 30% | % damage (Zea mays): 10% | % damage (Alopec. myosur. [2]): 50% | % damage (Echin. c.g.; 2.0 kg/ha): 55% | % damage (Setaria spp. [3]): 100%

CCc1cccc(C)c1N(Cn1cccn1)C(=O)CCl [Compound 7]
% damage (Lamium spp.; 0.5 kg/ha): 95% | % damage (Lamium spp.; 1.0 kg/ha): 100% | % damage (Brassica napus [4]; 0.5 kg/ha): 5% | % damage (Brassica napus [4]; 1.0 kg/ha): 10% | % damage (Anth./Matric.; 0.5 kg/ha): 100% | % damage (Stellaria media; 0.5 kg/ha): 80% | % damage (Stellaria media; 1.0 kg/ha): 95% | % damage (Alopec. myosur. [5]; 0.5 kg/ha): 70% | % damage (Alopec. myosur. [5]; 1.0 kg/ha): 85% | % damage (Poa annua; 0.25 kg/ha): 100% | % damage (Bromus spp.; 0.25 kg/ha): 95% | % damage (Solanum nigrum; 0.25 kg/ha): 100% | % damage (Chrys. seget.): 100% | % damage (Euph. gen.): 80% | % damage (Amar. retro.; 0.25 kg/ha): 88% | % damage (Sorgh. halep.; 0.25 kg/ha): 75%

Cc1cc(C)n(CN(C(=O)CCl)c2c(C)cccc2C)n1 [Compound 38]
% damage (Cyper. escul.; 1.0 kg/ha): 80% | % damage (Cyper. escul.; 2.0 kg/ha): 80% | % damage (Avena fat.; 1.0 kg/ha): 70% | % damage (Avena fat.; 2.0 kg/ha): 90% | % damage (Stell. med.; 1.0 kg/ha): 100% | % damage (Stell. med.; 2.0 kg/ha): 100% | % damage (Setaria spp. [6]; 1.0 kg/ha): 85% | % damage (Setaria spp. [6]; 2.0 kg/ha): 85% | % damage (Lamium spp.; 2.0 kg/ha): 100% | % damage (Brassica napus [4]; 2.0 kg/ha): 0% | % damage (Anth./Matric.; 2.0 kg/ha): 100% | % damage (Stellaria media; 2.0 kg/ha): 88% | % damage (Alopec. myosur. [5]; 2.0 kg/ha): 80% | % damage (Poa annua; 0.125 kg/ha): 100% | % damage (Poa annua; 0.25 kg/ha): 100% | % damage (Bromus spp.; 0.125 kg/ha): 95% | % damage (Bromus spp.; 0.25 kg/ha): 100% | % damage (Cyp. diff.; 0.125 kg/ha): 100% | % damage (Cyp. diff.; 0.25 kg/ha): 100% | % damage (Amar. retro.; 0.125 kg/ha): 75% | % damage (Amar. retro.; 0.25 kg/ha): 100% | % damage (Sorgh. halep.; 0.125 kg/ha): 70% | % damage (Sorgh. halep.; 0.25 kg/ha): 95%

CCc1cccc(C)c1N(Cn1nc(C)cc1C)C(=O)CCl [Compound 40]
% damage (Lamium spp.; 1.0 kg/ha): 60% | % damage (Brassica napus [4]; 1.0 kg/ha): 20% | % damage (Anth./Matric.; 1.0 kg/ha): 90% | % damage (Stellaria media; 1.0 kg/ha): 68% | % damage (Alopec. myosur. [5]; 1.0 kg/ha): 50% | % damage (Poa annua; 0.25 kg/ha): 100% | % damage (Bromus spp.; 0.25 kg/ha): 80% | % damage (Solanum nigrum; one value printed for two rates (0.125 0.25 kg/ha)): 95% | % damage (Chrys. seget.): 30% | % damage (Euph. gen.): 0% | % damage (Cyp. diff.; 0.125 kg/ha): 100% | % damage (Cyp. diff.; 0.25 kg/ha): 100% | % damage (Amar. retro.; 0.125 kg/ha): 90% | % damage (Amar. retro.; 0.25 kg/ha): 100% | % damage (Sorgh. halep.; 0.125 kg/ha): 60% | % damage (Sorgh. halep.; 0.25 kg/ha): 60%

CCc1cccc(CC)c1N(Cn1nc(C)cc1C)C(=O)CCl [Compound 41]
% damage (Glyc. max; 0.25 kg/ha): 0% | % damage (Glyc. max; 0.5 kg/ha): 0% | % damage (Glyc. max; 1.0 kg/ha): 0% | % damage (Glyc. max; 2.0 kg/ha): 0% | % damage (Gossyp. hirs.; 0.25 kg/ha): 0% | % damage (Gossyp. hirs.; 0.5 kg/ha): 8% | % damage (Gossyp. hirs.; 1.0 kg/ha): 8% | % damage (Gossyp. hirs.; 2.0 kg/ha): 10% | % damage (Solanum nigrum; 0.25 kg/ha): 70% | % damage (Solanum nigrum; 0.5 kg/ha): 90% | % damage (Solanum nigrum; 1.0 kg/ha): 98% | % damage (Solanum nigrum; 2.0 kg/ha): 100% | % damage (Lept. spp.; 0.25 kg/ha): 95% | % damage (Lept. spp.; 0.5 kg/ha): 95% | % damage (Lept. spp.; 1.0 kg/ha): 95% | % damage (Lept. spp.; 2.0 kg/ha): 95% | % damage (Sida spin.; 1.0 kg/ha): 45% | % damage (Sida spin.; 2.0 kg/ha): 90% | % damage (Panic. virg.; 0.25 kg/ha): 85% | % damage (Panic. virg.; 0.5 kg/ha): 85% | % damage (Panic. virg.; 1.0 kg/ha): 100% | % damage (Panic. virg.; 2.0 kg/ha): 100% | % damage (Ipom. spp.; 1.0 kg/ha): 50% | % damage (Ipom. spp.; 2.0 kg/ha): 90% | % damage (Cyp. diff.; 0.25 kg/ha): 100% | % damage (Cyp. diff.; 0.5 kg/ha): 100% | % damage (Cyp. diff.; 1.0 kg/ha): 100% | % damage (Cenchr. ech.; 0.25 kg/ha): 90% | % damage (Cenchr. ech.; 0.5 kg/ha): 92% | % damage (Cenchr. ech.; 1.0 kg/ha): 100% | % damage (Cenchr. ech.; 2.0 kg/ha): 100% | % damage (Amar. retro.; 0.25 kg/ha): 73% | % damage (Amar. retro.; 0.5 kg/ha): 97% | % damage (Amar. retro.; 1.0 kg/ha): 100% | % damage (Amar. retro.; 2.0 kg/ha): 100% | % damage (Echin. c.g.; 0.25 kg/ha): 95% | % damage (Echin. c.g.; 0.5 kg/ha): 100% | % damage (Echin. c.g.; 1.0 kg/ha): 100% | % damage (Echin. c.g.; 2.0 kg/ha): 100%
